Assay results reported in patent publication US10668135B2, “Methods of treating or preventing periodontitis and diseases associated with periodontitis” (The Trustees of the University of Pennsylvania, priority 2012, dated 2020).
“Also recorded” adds a separate entry of the source.

What was measured:
[1] = system: ligature-induced periodontitis; assay: Initial NHP study: ligature-induced periodontitis, maxillary posterior teeth, split-mouth, 6 weeks, two animals; type: in vivo, cynomolgus monkey; conditions: for clinical inflammation (inflammatory clinical parameters: probing pocket depth, gingival index, bleeding on probing, mobility index): Cp40 500 μg injected locally into maxillary interdental papillae, from day 3, vs inactive analog on contralateral side, 6 weeks, FIG. 4; for levels of proinflammatory cytokines in the gingival crevicular fluid (GCF): FIG. 5; for numbers of osteoclasts (TRAP-positive multinucleated cells) in bone biopsy specimens / osteoclastogenesis: FIG. 5G
Procedure: FIG. 4A, FIG. 4B, FIG. 4C, and FIG. 4D show results for probing pocket depth, gingival index, bleeding on probing, and mobility index, respectively, which are measurements typically used to detect clinical periodontal inflammation and bone lose. FIG. 4E represents a radiograph measurement of bone height. Starting 3 days after initiation of ligature-induced periodontitis, Cp40 (500 μg) was injected locally into the maxillary interdental papillae from the 1st premolar to the 2nd molar, in two animals, three times weekly. […] Shown are the effects of Cp40 on the indicated inflammatory clinical parameters and bone heights, determined using standardized X-ray images (taken at week 6) and NIKON imaging system software. Specifically, the distance between the cement-enamel junction (CEJ) and alveolar bone crest (ABC) was measured at six points (1st premolar, distal; 2nd premolar mesial & distal; 1st molar, mesial & distal; 2nd molar mesial) and the data in Panel E reflect the 6-site total. The higher CEJ-ABC distance values of the controls as compared to those of Cp40 treatments signify increased bone loss in the absence of drug treatment. In all animals, the gingival margin was at the cement-enamel junction, and thus, PPD readings equaled clinical attachment loss (CAL).
Specifically, the panels show the relative protein levels for TNF (FIG. 5A), IL-1b (FIG. 5B), IL-6 (FIG. 5C), IL-17A (FIG. 5D), receptor activator of nuclear factor kappa-B ligand (RANKL; FIG. 5E), and osteoprotegerin (OPG; FIG. 5F). At the same timepoints that clinical exams were performed (as per FIGS. 4A-4E), GCF was collected from the same monkeys (treatment details in FIGS. 4A-4E legend) using PERIOPAPER absorbent strips to assay the indicated cytokines. Total cytokine content in the eluted GCF samples was measured using MILLIPLEX MAP (multi-analyte panels) kits on a BIO-PLEX detection system. In FIG. 5G, TRAP-positive multinucleated cells (osteoclasts) were enumerated in nine serial sections for each bone biopsy specimen taken between the 2nd premolar and 1st molar of each animal.
The cynomolgus monkey model is therefore considerably more predictive of drug efficacy in human periodontitis as compared to other, widely used preclinical animal models such as rodents. Moreover, the cynomolgus model of ligature-induced periodontitis allows longitudinal examination of the disease in a way that cannot be performed in humans.
Thus, each animal served as its own control. An initial study with a 6-week duration was conducted using two animals.

[2] = system: ligature-induced periodontitis; assay: Second NHP study: ligature-induced periodontitis, mandibular posterior teeth, split-mouth, four monkeys; type: in vivo, cynomolgus monkey; conditions: n=4 monkeys
Procedure: FIG. 6A, FIG. 6B, FIG. 6C, and FIG. 6D show measurements for probing pocket depth, gingival index, bleeding on probing, and mobility index, respectively, between Cp40 treated and control animals. Starting 3 days after initiation of ligature-induced periodontitis, Cp40 (500 μg) or control were injected locally into the mandibular interdental papillae from the 1st premolar to the 2nd molar, three times weekly, in opposites sides of the mouth (split-mouth design). The effects of Cp40 were determined on the indicated inflammatory clinical parameters at the indicated timepoints. In all animals, the gingival margin was at the cement-enamel junction, and thus, PPD readings equaled clinical attachment loss (CAL). Data are means±SD (n=4 monkeys). *, P<0.05; **, P<0.01 vs. control.
Specifically, levels of TNF-α (FIG. 7A), IL-1β (FIG. 7B), IL-6 (FIG. 7C), interleukin 8 (IL-8; FIG. 7D), IL-17A (FIG. 7E), interleukin 18 (IL-18; FIG. 7F), granulocyte colony-stimulating factor (G-CSF; FIG. 7G), RANKL (FIG. 7H), and OPG (FIG. 7I) were measured. At the same timepoints that clinical exams were performed (as per FIGS. 6A-6D), GCF was collected from the same monkeys (treatment details in FIGS. 6A-6D legend) using PERIOPAPER absorbent strips to assay the indicated cytokines. Total cytokine content in the eluted GCF samples was measured using MILLIPLEX MAP (multi-analyte panels) kits on a BIO-PLEX detection system. Data are means±SD (n=4 monkeys). *, P<0.05; **, P<0.01 vs. control.
FIGS. 8A-8C are graphs showing inhibition of periodontal bone loss following treatment of NHP periodontitis with Cp40. Four monkeys were treated as described in the legend to FIGS. 6A-6D, and their mandibular bone heights (CEJ-ABC distance) were measured using standardized X-ray images (taken at baseline and at week 6) and NIKON imaging system software. Measurements were made at six points (1st premolar, distal; 2nd premolar mesial & distal; 1st molar, mesial & distal; 2nd molar mesial) and the data in FIG. 8A and FIG. 8B reflect, respectively, the 6-site total at baseline (FIG. 8A) and at week 6 (FIG. 8B). For each control or Cp40 treatment, bone loss was calculated as bone height at baseline minus bone height at 6 weeks (FIG. 8C). The difference between Cp40 and control was significant (P<0.05; paired t test).
In a second NHP study, ligature-induced periodontitis was induced by placing ligatures around the mandibular posterior teeth (i.e., in the lower jaw) of the same two animals plus in two additional animals (total of four monkeys). The results obtained (FIGS. 6, 7, and 8) confirmed the results of the original study. Moreover, the presence of four animals allowed the possibility for statistical analysis.

[3] = Cp40 500 μg local, three times weekly, vs inactive analog control

Row | Compound | clinical inflammation (inflammatory clinical parameters: probing pocket depth, gingival index, bleeding on probing, mobility index) ([1]; three times weekly) | levels of proinflammatory cytokines in the gingival crevicular fluid (GCF) [1, 3] | numbers of osteoclasts (TRAP-positive multinucleated cells) in bone biopsy specimens / osteoclastogenesis [1, 3] | bone loss (radiographic bone height, CEJ-ABC distance, 6-site total) ([1]; Cp40 500 μg local, three times weekly, X-ray at week 6, vs inactive analog control, FIG. 4E) | GCF levels of RANKL ([1]; Cp40 500 μg local, three times weekly, vs inactive analog control, FIG. 5E) | GCF levels of osteoprotegerin (OPG) ([1]; Cp40-treated sites vs control sites during the course of the study, FIG. 5F) | probing pocket depth (PPD), protective effect ([2]; Cp40 500 μg injected locally into mandibular interdental papillae, three times weekly, vs control, FIG. 6A) | inflammatory clinical parameters (overall) ([2]; Cp40 500 μg local mandibular, three times weekly, vs control, FIG. 6) | gingival index (GI), protective effect ([2]; Cp40 500 μg local mandibular, three times weekly, vs control, FIG. 6B) | GCF levels of proinflammatory cytokines (cytokine responses) ([2]; Cp40 500 μg local mandibular, three times weekly, vs control, FIG. 7) | periodontal bone loss (bone height at baseline minus bone height at 6 weeks, CEJ-ABC distance) ([2]; Cp40 500 μg local mandibular, three times weekly, vs control, P<0.05 paired t test, FIG. 8C) | GCF RANKL levels ([2]; Cp40 vs. control treatment, FIG. 7H) | GCF OPG levels ([2]; Cp40 vs. control treatment, FIG. 7I)
1 | CC[C@H](C)[C@H](N)C(=O)N[C@H]1CSSC[C@@H](C(=O)N[C@H](C(N)=O)[C@@H](C)O)NC(=O)[C@H](CCCN=C(N)N)NC(=O)[C@H](Cc2cnc[nH]2)NC(=O)[C@H](Cc2cnc[nH]2)NC(=O)CNC(=O)[C@H](Cc2c[nH]c3ccccc23)NC(=O)[C@H](CC(=O)O)NC(=O)[C@H](CCC(N)=O)NC(=O)[C@H](C(C)C)NC(=O)[C@H](C(C)C)NC1=O [Compstatin, Ile-Cys*-Val-Val-Gln-Asp-Trp-Gly-His-His-Arg-Cys*-Thr] | decreased clinical inflammation | reduced levels of proinflammatory cytokines | lower numbers of osteoclasts |  |  |  |  |  |  |  |  |  | 
2 | dTyr-Ile-Cys*-Val-Trp(1Me)-Gln-Asp-Trp-Sar-Ala-His-Arg-Cys*-mIle-NH2 (YICVWQDWGAHRCI; D-Tyr, Trp(1Me), Sar, mIle, disulfide cyclisation, C-terminal amide; compstatin analog (Cp40); MOD_RES (1)..(1) D-Tyrosine; DISULFID (3)..(13) Cysteines joined via disulfide bridge.; MOD_RES (5)..(5) 1-methyl-tryptophan; MOD_RES (9)..(9) …ON, MeGly; MOD_RES (14)..(14) …ON; MOD_RES (14)..(14) AMIDATION) | decreases inflammatory clinical parameters | inhibits proinflammatory cytokine production | decreased osteoclastogenesis | decreased bone loss | decreased GCF levels of RANKL | maintained at higher levels | reached statistical significance | significant inhibition of inflammatory clinical parameters | reached statistical significance | decreased GCF levels of proinflammatory cytokines; also recorded: reached statistical significance | significant inhibition of bone loss | decreased RANKL | increased OPG levels
